Assay results as given in patent US11485742B2, “2-azaspiro[3.4]octane derivatives as M4 agonists” (NOVARTIS AG, priority 2019, dated 2022).
One block for each molecule: values may come before it.

Molecular target: T1, Cloned human M1 receptor (CHRM1) (Homo sapiens, UniProt P11229)
T1 construct: expressed in transfected cells; host or cells: HEK293
T1 sequence (P11229 1-460): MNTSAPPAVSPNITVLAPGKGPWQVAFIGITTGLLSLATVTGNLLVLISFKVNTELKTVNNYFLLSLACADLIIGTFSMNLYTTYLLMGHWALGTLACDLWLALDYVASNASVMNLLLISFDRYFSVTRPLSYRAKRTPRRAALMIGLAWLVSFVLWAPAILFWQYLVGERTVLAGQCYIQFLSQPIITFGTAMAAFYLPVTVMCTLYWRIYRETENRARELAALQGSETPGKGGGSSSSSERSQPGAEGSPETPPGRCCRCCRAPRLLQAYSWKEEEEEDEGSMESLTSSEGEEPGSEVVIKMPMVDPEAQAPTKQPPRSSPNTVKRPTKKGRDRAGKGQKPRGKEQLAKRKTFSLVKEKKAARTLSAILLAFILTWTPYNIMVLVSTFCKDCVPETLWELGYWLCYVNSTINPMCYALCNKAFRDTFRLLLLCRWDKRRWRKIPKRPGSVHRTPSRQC
Experiment: CHRM1 Ca++ Flux Assay (HEK293 M1 cells, agonist mode)
Assay type: cell-based
Details: for Emax / M1 FDSS PA %: Percent Activity (PA); for Emax: read-out: M1 FDSS PA %; for EC50: geometric mean if tested more than once, read-out: M1 FDSS EC50
Description: The above examples were characterized by measuring the intracellular mobilization of Ca^++ ions caused by signaling events mediated by the receptor. The Intra-cellular Calcium flux levels were captured by the highly sensitive Ca^++ indicator, Calcium Assay Kit (BD Biosciences; Catalog Number 640178. The fluorescent activity from all receptors were monitored by the fluorescent imager, FDSS 7000EX (Hamamatsu) over a span of 3 minutes. The change in Calcium flux was readily captured upon activation with the muscarinic orthosteric agonist, Carbachol.
Cloned human M1 receptor (CHRM1) was stably expressed in HEK293 cells and were grown and maintained in a monolayer culture with DMEM/High Glucose (Life Technologies) supplemented with 10% Fetal Bovine Serum, 1×Pen-Strep, and 0.5 mg/mL Geneticin in a humidified atmosphere (5% CO2) at 37° C. The cultures were grown to 90% confluency in T150 flasks (Corning) and washed with 1×DPBS and lifted with 0.05% Trypsin (Life Technologies). The cells were then spun (1K rpm, 3 minutes) and frozen using Recovery Cell Culture Freezing Media (Gibco Technologies). Cells were stored in liquid nitrogen and thawed a day before the assay.
Prior to the day of the assay, stable HEK293 M1 cells were thawed and plated on 384 well black walled clear bottom TC treated plates (Greiner Cat #781091) at 25K cells/well with DMEM/High Glucose supplemented with 10% FBS (Hyclone) Pen-Strep (Life Technologies) and kept overnight in a humidified atmosphere (5% CO2) at 37° C. The following day, cells were loaded with 20 uL Ca^++ dye (BD Biosciences) using Loading Buffer (HBSS +Ca/+Mg, 20 mM HEPES) and placed back in cell incubator for a minimum of 1 hour. The dye was replaced with 45 μL Assay Buffer (HBSS −Ca/−Mg, 20 mM HEPES) and kept at room temperature prior to running on cell imager. Compounds were prepared in Assay Buffer and 5 uL was added to the cells. The FDSS 7000EX (Hamamatsu) was used to acquire Ca++ traces for 3 minutes from cells treated with 11 point dose in triplicate in order to generate dose response curves in agonist mode. All compounds were serially diluted in DMSO then prepared in Assay Buffer for Ca^++ flux studies. The dose response curves were generated from the average of triplicate wells obtained from each data point and used a non-linear regression of four parameter dose response algorithm. The Percent Activity (PA) was measured to EC100 of Carbachol.
If an Example was tested more than once in an assay, then the values below represent the geometric mean of the results from each independent experiment.

SMILES: Fc1ccc(O[C@H]2CCCOC2)c(C2CCN([C@@H]3COC4(C3)CN(c3nnco3)C4)CC2)c1 (single isomer, unassigned) [Example 2Q, (S)-7-(4-(5-fluoro-2-(((S)-tetrahydro-2H-pyran-3-yl)oxy)phenyl)piperidin-1-yl)-2-(1,3,4-oxadiazol-2-yl)-5-oxa-2-azaspiro[3.4]octane or (S)-7-(4-(5-fluoro-2-(((R)-tetrahydro-2H-pyran-3-yl)oxy)phenyl)piperidin-1-yl)-2-(1,3,4-oxadiazol-2-yl)-5-oxa-2-azaspiro[3.4]octane]
M1 FDSS PA %: 80% | EC50: 2.02 µM

SMILES: OC[C@H]1C[C@H](Oc2ccc(F)cc2C2CCN([C@@H]3COC4(C3)CN(c3nnco3)C4)CC2)C1 (single isomer, unassigned) [Example 2II, ((1S,3r)-3-(2-(1-((S)-2-(1,3,4-oxadiazol-2-yl)-5-oxa-2-azaspiro[3.4]octan-7-yl)piperidin-4-yl)-4-fluorophenoxy)cyclobutyl)methanol or ((1R,3s)-3-(2-(1-((S)-2-(1,3,4-oxadiazol-2-yl)-5-oxa-2-azaspiro[3.4]octan-7-yl)piperidin-4-yl)-4-fluorophenoxy)cyclobutyl)methanol]
M1 FDSS PA %: 107% | EC50: 4.05 µM

SMILES: Fc1ccc(C2CCOCC2)c(C2CCN([C@@H]3COC4(C3)CN(c3nnco3)C4)CC2)c1 [Example 3D, (S)-7-(4-(5-fluoro-2-(tetrahydro-2H-pyran-4-yl)phenyl)piperidin-1-yl)-2-(1,3,4-oxadiazol-2-yl)-5-oxa-2-azaspiro[3.4]octane]
Emax: 75% | EC50: 1.41 µM

SMILES: Fc1ccc(OC[C@H]2COCCO2)c(C2CCN([C@@H]3COC4(C3)CN(c3nnco3)C4)CC2)c1 [Example 1C]
Emax: 72% | EC50: 0.576 µM

SMILES: Fc1cc(OC2COC2)c(C2CCN([C@@H]3COC4(C3)CN(c3nnco3)C4)CC2)cc1F [Example 2FF, (S)-7-(4-(4,5-difluoro-2-(oxetan-3-yloxy)phenyl)piperidin-1-yl)-2-(1,3,4-oxadiazol-2-yl)-5-oxa-2-azaspiro[3.4]octane]
Emax: 70% | EC50: 0.264 µM

SMILES: Fc1ccc(OC[C@H]2CCO2)c(C2CCN([C@@H]3COC4(C3)CN(c3nncs3)C4)CC2)c1.O=C(O)C(F)(F)F (single isomer, unassigned) [Example 2C, (S)-7-(4-(5-fluoro-2-(((R)-oxetan-2-yl)methoxy)phenyl)piperidin-1-yl)-2-(1,3,4-thiadiazol-2-yl)-5-oxa-2-azaspiro[3.4]octane trifluoroacetate or (S)-7-(4-(5-fluoro-2-(((S)-oxetan-2-yl)methoxy)phenyl)piperidin-1-yl)-2-(1,3,4-thiadiazol-2-yl)-5-oxa-2-azaspiro[3.4]octane trifluoroacetate]
M1 FDSS PA %: 75% | EC50: 1.15 µM

SMILES: Fc1ccc(O[C@H]2CCOC2)c(C2CCN([C@@H]3COC4(C3)CN(c3nnco3)C4)CC2)c1 [Example 1H, (S)-7-(4-(5-fluoro-2-(((S)-tetrahydrofuran-3-yl)oxy)phenyl)piperidin-1-yl)-2-(1,3,4-oxadiazol-2-yl)-5-oxa-2-azaspiro[3.4]octane]
Emax: 87% | EC50: 0.631 µM

SMILES: Fc1ccc(O[C@H]2CCCOC2)c(C2CCN([C@@H]3COC4(C3)CN(c3nnco3)C4)CC2)c1 (single isomer, unassigned) [Example 2R, (S)-7-(4-(5-fluoro-2-(((S)-tetrahydro-2H-pyran-3-yl)oxy)phenyl)piperidin-1-yl)-2-(1,3,4-oxadiazol-2-yl)-5-oxa-2-azaspiro[3.4]octane or (S)-7-(4-(5-fluoro-2-(((R)-tetrahydro-2H-pyran-3-yl)oxy)phenyl)piperidin-1-yl)-2-(1,3,4-oxadiazol-2-yl)-5-oxa-2-azaspiro[3.4]octane]
M1 FDSS PA %: 56% | EC50: 0.848 µM

Next, values leading:

Emax: 75% | EC50: 2.44 µM
SMILES: CC(C)(O)COc1ccc(F)cc1C1CCN([C@@H]2COC3(C2)CN(c2nncs2)C3)CC1 [Example 5U, (S)-1-(2-(1-(2-(1,3,4-thiadiazol-2-yl)-5-oxa-2-azaspiro[3.4]octan-7-yl)piperidin-4-yl)-4-fluorophenoxy)-2-methylpropan-2-ol]

Emax: 89% | EC50: 0.624 µM
SMILES: Fc1ccc(C2CCN([C@@H]3COC4(C3)CN(c3ncco3)C4)CC2)c(OC2COC2)c1 [Example 4S, (S)-7-(4-(4-fluoro-2-(oxetan-3-yloxy)phenyl)piperidin-1-yl)-2-(oxazol-2-yl)-5-oxa-2-azaspiro[3.4]octane]

Emax: 79% | EC50: 0.382 µM
SMILES: c1ccc(C2CCN([C@@H]3COC4(C3)CN(c3ncco3)C4)CC2)c(OC2COC2)c1 [Example 4C, (S)-2-(oxazol-2-yl)-7-(4-(2-(oxetan-3-yloxy)phenyl)piperidin-1-yl)-5-oxa-2-azaspiro[3.4]octane]

M1 FDSS PA %: 55% | EC50: 2.24 µM
SMILES: CC(C)(O)[C@H]1C[C@@H](Oc2ccc(F)cc2C2CCN([C@@H]3COC4(C3)CN(c3ncco3)C4)CC2)C1 (single isomer, unassigned) [Example 4U, 2-((1R,3s)-3-(4-fluoro-2-(1-((S)-2-(oxazol-2-yl)-5-oxa-2-azaspiro[3.4]octan-7-yl)piperidin-4-yl)phenoxy)cyclobutyl)propan-2-ol or 2-((1S,3r)-3-(4-fluoro-2-(1-((S)-2-(oxazol-2-yl)-5-oxa-2-azaspiro[3.4]octan-7-yl)piperidin-4-yl)phenoxy)cyclobutyl)propan-2-ol]

Emax: 49% | EC50: 2.81 µM
SMILES: c1ccc(C2CCN([C@@H]3COC4(C3)CN(c3ncco3)C4)CC2)c(OC2CC3(COC3)C2)c1 [Example 4M, (S)-7-(4-(2-((2-oxaspiro[3.3]heptan-6-yl)oxy)phenyl)piperidin-1-yl)-2-(oxazol-2-yl)-5-oxa-2-azaspiro[3.4]octane]

Emax: 74% | EC50: 1.09 µM
SMILES: Fc1ccc(C2CCOCC2)c(C2CCN([C@@H]3COC4(C3)CN(c3ncco3)C4)CC2)c1 [Example 4W, (S)-7-(4-(5-fluoro-2-(tetrahydro-2H-pyran-4-yl)phenyl)piperidin-1-yl)-2-(oxazol-2-yl)-5-oxa-2-azaspiro[3.4]octane]

Emax: 72% | EC50: 1.67 µM
SMILES: c1ccc(C2CCN([C@@H]3COC4(C3)CN(c3ncco3)C4)CC2)c(OC2CCOCC2)c1 [Example 4J, (S)-2-(oxazol-2-yl)-7-(4-(2-((tetrahydro-2H-pyran-4-yl)oxy)phenyl)piperidin-1-yl)-5-oxa-2-azaspiro[3.4]octane]

Emax: 88% | EC50: 0.37 µM
SMILES: Fc1ccc(OC[C@@H]2COCCO2)c(C2CCN([C@@H]3COC4(C3)CN(c3nncs3)C4)CC2)c1 [Example 5L, (S)-7-(4-(2-(((S)-1,4-dioxan-2-yl)methoxy)-5-fluorophenyl)piperidin-1-yl)-2-(1,3,4-thiadiazol-2-yl)-5-oxa-2-azaspiro[3.4]octane]

Emax: 88% | EC50: 0.311 µM
SMILES: Fc1ccc(OC2COC2)c(C2CCN([C@@H]3COC4(C3)CN(c3nncs3)C4)CC2)c1 [Example 5G, (S)-7-(4-(5-fluoro-2-(oxetan-3-yloxy)phenyl)piperidin-1-yl)-2-(1,3,4-thiadiazol-2-yl)-5-oxa-2-azaspiro[3.4]octane]

Emax: 64% | EC50: 0.384 µM
SMILES: COc1ccccc1C1CCN([C@@H]2COC3(C2)CN(c2ncco2)C3)CC1 [Example 4N, (S)-7-(4-(2-methoxyphenyl)piperidin-1-yl)-2-(oxazol-2-yl)-5-oxa-2-azaspiro[3.4]octane]

Emax: 84% | EC50: 0.234 µM
SMILES: Fc1ccc(OC2COC2)c(C2CCN([C@@H]3COC4(C3)CN(c3ncco3)C4)CC2)c1 [Example 4A, (S)-7-(4-(5-fluoro-2-(oxetan-3-yloxy)phenyl)piperidin-1-yl)-2-(oxazol-2-yl)-5-oxa-2-azaspiro[3.4]octane]
